# Data as given in ChEMBL document CHEMBL3885861, “Open TG-GATES”.
# Organism: Rattus norvegicus
# Assay: Open TG-GATES - Regimen: Daily Repeat
# Type: toxicity, organism-based, Sprague-Dawley
# Parameters: regimen Daily Repeat, gender Male, age 6 weeks
# Conditions: in vivo, po, 0 mg/kg, route gavage, dose level Control; for APTT / Bas / Eos / Fbg / Hb / Ht / Lym / MCH / MCHC / MCV / Mono / Neu / PT / Plat / RBC / Ret / WBC: tissue Blood; for KIDNEY_L / KIDNEY_R / KIDNEY_TOTAL: tissue Kidney; for LIVER: tissue Liver; for A/G / ALP / ALT / AST / BUN / CRE / Ca / Cl / DBIL / GLC / IP / K / LDH / Na / PL / RALB / TBIL / TC / TG / TP / gamma-GTP: tissue Plasma
smiles,measurement,setting,value
CCc1oc2ccccc2c1C(=O)c1cc(I)c(O)c(I)c1 [BENZIODARONE],TERMINAL_BW,"72 h, time 3 day",239.1 g
same,APTT,"72 h, time 3 day",17.3 s
same,Bas,"72 h, time 3 day",0%
same,Eos,"72 h, time 3 day",0.8%
same,Fbg,"72 h, time 3 day",216.8 mg/dL
same,Hb,"72 h, time 3 day",14.1 g/dL
same,Ht,"72 h, time 3 day",41.9%
same,Lym,"72 h, time 3 day",76.2%
same,MCH,"72 h, time 3 day",21.4 pg
same,MCHC,"72 h, time 3 day",33.7%
same,MCV,"72 h, time 3 day",63.6 fL
same,Mono,"72 h, time 3 day",7%
same,Neu,"72 h, time 3 day",15.6%
same,PT,"72 h, time 3 day",11.7 s
same,Plat,"72 h, time 3 day",125.7 x10_4/uL
same,RBC,"72 h, time 3 day",658.4 x10_4/ul
same,Ret,"72 h, time 3 day",6.2%
same,WBC,"72 h, time 3 day",99.6 x10_2/uL
same,KIDNEY_L,"72 h, time 3 day",1.1 g
same,KIDNEY_R,"72 h, time 3 day",1.1 g
same,KIDNEY_TOTAL,"72 h, time 3 day",2.2 g
same,LIVER,"72 h, time 3 day",11.6 g
same,A/G,"72 h, time 3 day",1.8
same,ALP,"72 h, time 3 day",882.4 IU/L
same,ALT,"72 h, time 3 day",39 IU/L
same,AST,"72 h, time 3 day",62.6 IU/L
same,BUN,"72 h, time 3 day",17.4 mg/dL
same,CRE,"72 h, time 3 day",0.5 mg/dL
same,Ca,"72 h, time 3 day",10.7 mg/dL
same,Cl,"72 h, time 3 day",104.6 meq/L
same,DBIL,"72 h, time 3 day",0.014 mg/dL
same,GLC,"72 h, time 3 day",203.2 mg/dL
same,IP,"72 h, time 3 day",7.2 mg/dL
same,K,"72 h, time 3 day",4.7 meq/L
same,LDH,"72 h, time 3 day",79.6 IU/L
same,Na,"72 h, time 3 day",141 meq/L
same,PL,"72 h, time 3 day",147.4 mg/dL
same,RALB,"72 h, time 3 day",3.7 g/dL
same,TBIL,"72 h, time 3 day",0.3 mg/dL
same,TC,"72 h, time 3 day",75.4 mg/dL
same,TG,"72 h, time 3 day",103.6 mg/dL
same,TP,"72 h, time 3 day",5.7 g/dL
same,gamma-GTP,"72 h, time 3 day",1.2 IU/L
same,TERMINAL_BW,"[…], time 7 day",272.7 g
same,TERMINAL_BW,"[…], time 14 day",335.3 g
same,TERMINAL_BW,"[…], time 28 day",397 g
same,APTT,"[…], time 7 day",16.8 s
same,Bas,"[…], time 7 day",0%
same,Eos,"[…], time 7 day",1%
same,Fbg,"[…], time 7 day",220 mg/dL
same,Hb,"[…], time 7 day",14.2 g/dL
same,Ht,"[…], time 7 day",41.6%
same,Lym,"[…], time 7 day",77.8%
same,MCH,"[…], time 7 day",21.4 pg
same,MCHC,"[…], time 7 day",34.1%
same,MCV,"[…], time 7 day",62.8 fL
same,Mono,"[…], time 7 day",7.2%
same,Neu,"[…], time 7 day",14.2%
same,PT,"[…], time 7 day",11.5 s
same,Plat,"[…], time 7 day",125.2 x10_4/uL
same,RBC,"[…], time 7 day",662.2 x10_4/ul
same,Ret,"[…], time 7 day",4.5%
same,WBC,"[…], time 7 day",108.6 x10_2/uL
same,APTT,"[…], time 14 day",17.1 s
same,Bas,"[…], time 14 day",0%
same,Eos,"[…], time 14 day",1%
same,Fbg,"[…], time 14 day",220.6 mg/dL
same,Hb,"[…], time 14 day",14.2 g/dL
same,Ht,"[…], time 14 day",41.9%
same,Lym,"[…], time 14 day",80.8%
same,MCH,"[…], time 14 day",20.9 pg
same,MCHC,"[…], time 14 day",34%
same,MCV,"[…], time 14 day",61.5 fL
same,Mono,"[…], time 14 day",6%
same,Neu,"[…], time 14 day",12.6%
same,PT,"[…], time 14 day",11.5 s
same,Plat,"[…], time 14 day",115.3 x10_4/uL
same,RBC,"[…], time 14 day",683.2 x10_4/ul
same,Ret,"[…], time 14 day",3.1%
same,WBC,"[…], time 14 day",110 x10_2/uL
same,APTT,"[…], time 28 day",17.9 s
same,Bas,"[…], time 28 day",0%
same,Eos,"[…], time 28 day",1.6%
same,Fbg,"[…], time 28 day",215.8 mg/dL
same,Hb,"[…], time 28 day",15.8 g/dL
same,Ht,"[…], time 28 day",46.8%
same,Lym,"[…], time 28 day",80%
same,MCH,"[…], time 28 day",19.5 pg
same,MCHC,"[…], time 28 day",33.7%
same,MCV,"[…], time 28 day",57.7 fL
same,Mono,"[…], time 28 day",5.4%
same,Neu,"[…], time 28 day",13.4%
same,PT,"[…], time 28 day",11.9 s
same,Plat,"[…], time 28 day",117.3 x10_4/uL
same,RBC,"[…], time 28 day",812.6 x10_4/ul
same,Ret,"[…], time 28 day",3.1%
same,WBC,"[…], time 28 day",150.6 x10_2/uL
same,KIDNEY_L,"[…], time 7 day",1.1 g
same,KIDNEY_R,"[…], time 7 day",1.2 g
same,KIDNEY_TOTAL,"[…], time 7 day",2.3 g
same,KIDNEY_L,"[…], time 14 day",1.3 g
same,KIDNEY_R,"[…], time 14 day",1.3 g
same,KIDNEY_TOTAL,"[…], time 14 day",2.6 g
same,KIDNEY_L,"[…], time 28 day",1.4 g
same,KIDNEY_R,"[…], time 28 day",1.4 g
same,KIDNEY_TOTAL,"[…], time 28 day",2.9 g
same,LIVER,"[…], time 7 day",12.8 g
same,LIVER,"[…], time 14 day",15.1 g
same,LIVER,"[…], time 28 day",15.6 g
same,A/G,"[…], time 7 day",1.7
same,ALP,"[…], time 7 day",916.8 IU/L
same,ALT,"[…], time 7 day",36 IU/L
same,AST,"[…], time 7 day",62.8 IU/L
same,BUN,"[…], time 7 day",19.2 mg/dL
same,CRE,"[…], time 7 day",0.5 mg/dL
same,Ca,"[…], time 7 day",10.6 mg/dL
same,Cl,"[…], time 7 day",104.6 meq/L
same,DBIL,"[…], time 7 day",0.048 mg/dL
same,GLC,"[…], time 7 day",192 mg/dL
same,IP,"[…], time 7 day",6.9 mg/dL
same,K,"[…], time 7 day",4.9 meq/L
same,LDH,"[…], time 7 day",86 IU/L
same,Na,"[…], time 7 day",139.6 meq/L
same,PL,"[…], time 7 day",141.8 mg/dL
same,RALB,"[…], time 7 day",3.6 g/dL
same,TBIL,"[…], time 7 day",0.3 mg/dL
same,TC,"[…], time 7 day",65 mg/dL
same,TG,"[…], time 7 day",114.2 mg/dL
same,TP,"[…], time 7 day",5.7 g/dL
same,gamma-GTP,"[…], time 7 day",1.8 IU/L
same,A/G,"[…], time 14 day",1.6
same,ALP,"[…], time 14 day",789.8 IU/L
same,ALT,"[…], time 14 day",32.2 IU/L
same,AST,"[…], time 14 day",63.2 IU/L
same,BUN,"[…], time 14 day",19.6 mg/dL
same,CRE,"[…], time 14 day",0.5 mg/dL
same,Ca,"[…], time 14 day",10.5 mg/dL
same,Cl,"[…], time 14 day",104.4 meq/L
same,DBIL,"[…], time 14 day",0 mg/dL
same,GLC,"[…], time 14 day",201 mg/dL
same,IP,"[…], time 14 day",6.7 mg/dL
same,K,"[…], time 14 day",4.9 meq/L
same,LDH,"[…], time 14 day",97.2 IU/L
same,Na,"[…], time 14 day",140.6 meq/L
same,PL,"[…], time 14 day",149 mg/dL
same,RALB,"[…], time 14 day",3.7 g/dL
same,TBIL,"[…], time 14 day",0.3 mg/dL
same,TC,"[…], time 14 day",72.4 mg/dL
same,TG,"[…], time 14 day",152 mg/dL
same,TP,"[…], time 14 day",6 g/dL
same,gamma-GTP,"[…], time 14 day",2 IU/L
same,A/G,"[…], time 28 day",1.5
same,ALP,"[…], time 28 day",606.6 IU/L
same,ALT,"[…], time 28 day",27 IU/L
same,AST,"[…], time 28 day",57 IU/L
same,BUN,"[…], time 28 day",19.8 mg/dL
same,CRE,"[…], time 28 day",0.6 mg/dL
same,Ca,"[…], time 28 day",10.6 mg/dL
same,Cl,"[…], time 28 day",105.6 meq/L
same,DBIL,"[…], time 28 day",0.04 mg/dL
same,GLC,"[…], time 28 day",200 mg/dL
same,IP,"[…], time 28 day",5.7 mg/dL
same,K,"[…], time 28 day",4.5 meq/L
same,LDH,"[…], time 28 day",79 IU/L
same,Na,"[…], time 28 day",140 meq/L
same,PL,"[…], time 28 day",135 mg/dL
same,RALB,"[…], time 28 day",3.7 g/dL
same,TBIL,"[…], time 28 day",0.3 mg/dL
same,TC,"[…], time 28 day",58 mg/dL
same,TG,"[…], time 28 day",164.8 mg/dL
same,TP,"[…], time 28 day",6.2 g/dL
same,gamma-GTP,"[…], time 28 day",2.2 IU/L
